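Exposure lasted 48 hours, with cells grown in 96-well plates and compounds tested at five concentrations. Abbreviation: GI50, concentration required for 50% inhibition of growth.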 Activity calls are given as the source filed them. No stated cut-off is given here; in the data, active = GI50 up to about 1.1 µM and inactive = higher.
Experiments:
Assay in all cases: NCI tumour cell line growth inhibition, 48 h
EKVX = tested on: EKVX
DMS-273 = tested on: DMS-273
Malme-3M = tested on: Malme-3M
K562 = tested on: K562
786-0 = tested on: 786-0
A549 = tested on: A549
RXF 393 = tested on: RXF 393
DMS-114 = tested on: DMS-114
NCI-H226 = tested on: NCI-H226
KM-20L2 = tested on: KM-20L2
SF-295 = tested on: SF-295
SK-MEL-2 = tested on: SK-MEL-2
SK-MEL-5 = tested on: SK-MEL-5
KM12 = tested on: KM12
NCI-H522 = tested on: NCI-H522
NCI-H460 = tested on: NCI-H460
OVCAR-4 = tested on: OVCAR-4
UACC-62 = tested on: UACC-62
RPMI-8226 = tested on: RPMI-8226
SN12C = tested on: SN12C
LOX IMVI = tested on: LOX IMVI
HOP-62 = tested on: HOP-62
OVCAR-3 = tested on: OVCAR-3
SW-620 = tested on: SW-620
HCC 2998 = tested on: HCC 2998
SNB-78 = tested on: SNB-78
SNB-19 = tested on: SNB-19
HT-29 = tested on: HT-29
SR = tested on: SR
NCI-H23 = tested on: NCI-H23
OVCAR-8 = tested on: OVCAR-8
MOLT-4 = tested on: MOLT-4
CCRF-CEM = tested on: CCRF-CEM
SK-MEL-28 = tested on: SK-MEL-28
M14 = tested on: M14
UO-31 = tested on: UO-31
HOP-92 = tested on: HOP-92
U-251 = tested on: U-251
RXF 631 = tested on: RXF 631
SK-OV-3 = tested on: SK-OV-3
COLO 205 = tested on: COLO 205
SNB-75 = tested on: SNB-75
SF-539 = tested on: SF-539
ACHN = tested on: ACHN
DLD-1 = tested on: DLD-1
UACC-257 = tested on: UACC-257
A498 = tested on: A498
XF498 = tested on: XF498
SF-268 = tested on: SF-268
TK-10 = tested on: TK-10
M19-MEL = tested on: M19-MEL
HCT-15 = tested on: HCT-15
CAKI-1 = tested on: CAKI-1
IGROV-1 = tested on: IGROV-1
OVCAR-5 = tested on: OVCAR-5
HCT-116 = tested on: HCT-116
HL-60 = tested on: HL-60
LXFL 529 = tested on: LXFL 529
HOP-18 = tested on: HOP-18

Compound: O=C1Nc2cc([N+](=O)[O-])c(Br)cc2C1=O
- GI50 (EKVX): 22.4 µM (inactive)
- GI50 (DMS-273): 20.1 µM (inactive)
- GI50 (Malme-3M): 22.5 µM (inactive)
- GI50 (K562): 18.1 µM (inactive)
- GI50 (786-0): 18.5 µM (inactive)
- GI50 (A549): 95.7 µM (inactive)
- GI50 (RXF 393): 24.7 µM (inactive)
- GI50 (DMS-114): 17.5 µM (inactive)
- GI50 (NCI-H226): 18.5 µM (inactive)
- GI50 (KM-20L2): 15.3 µM (inactive)
- GI50 (SF-295): 3.68 µM (inactive)
- GI50 (SK-MEL-2): 26.7 µM (inactive)
- GI50 (SK-MEL-5): 21.1 µM (inactive)
- GI50 (KM12): 51.4 µM (inactive)
- GI50 (NCI-H522): 16.6 µM (inactive)
- GI50 (NCI-H460): 30.5 µM (inactive)
- GI50 (OVCAR-4): 16.4 µM (inactive)
- GI50 (UACC-62): 18.7 µM (inactive)
- GI50 (RPMI-8226): 17.6 µM (inactive)
- GI50 (SN12C): 18.4 µM (inactive)
- GI50 (LOX IMVI): 18.5 µM (inactive)
- GI50 (HOP-62): 28.4 µM (inactive)
- GI50 (OVCAR-3): 18.1 µM (inactive)
- GI50 (SW-620): 19.3 µM (inactive)
- GI50 (HCC 2998): > 10 µM (inactive)
- GI50 (SNB-78): 23.3 µM (inactive)
- GI50 (SNB-19): > 10 µM (inactive)
- GI50 (HT-29): 20.2 µM (inactive)
- GI50 (SR): 10.2 µM (inactive)
- GI50 (NCI-H23): 17.3 µM (inactive)
- GI50 (OVCAR-8): 16.4 µM (inactive)
- GI50 (MOLT-4): 10.4 µM (inactive)
- GI50 (CCRF-CEM): 6.01 µM (inactive)
- GI50 (SK-MEL-28): 21.3 µM (inactive)
- GI50 (M14): 16.6 µM (inactive)
- GI50 (UO-31): 18.5 µM (inactive)
- GI50 (HOP-92): 24.5 µM (inactive)
- GI50 (U-251): > 10 µM (inactive)
- GI50 (RXF 631): 18.5 µM (inactive)
- GI50 (SK-OV-3): 17.5 µM (inactive)
- GI50 (COLO 205): 18.4 µM (inactive)
- GI50 (SNB-75): 19 µM (inactive)
- GI50 (SF-539): 22.4 µM (inactive)
- GI50 (ACHN): 18.2 µM (inactive)
- GI50 (DLD-1): 22.2 µM (inactive)
- GI50 (UACC-257): 18 µM (inactive)
- GI50 (A498): > 100 µM (inactive)
- GI50 (XF498): 12.1 µM (inactive)
- GI50 (SF-268): 20.9 µM (inactive)
- GI50 (TK-10): > 100 µM (inactive)
- GI50 (M19-MEL): 16.4 µM (inactive)
- GI50 (HCT-15): 18.9 µM
- GI50 (CAKI-1): 19.1 µM (inactive)
- GI50 (IGROV-1): 17.5 µM (inactive)

Compound: O=C1CC2Sc3ccccc3N=C2N1c1ccc(Cl)cc1Cl (centres undefined)
- GI50 (EKVX): > 100 µM (inactive)
- GI50 (Malme-3M): 64.7 µM (inactive)
- GI50 (OVCAR-5): > 100 µM (inactive)
- GI50 (786-0): 30.3 µM (inactive)
- GI50 (A549): 83.4 µM (inactive)
- GI50 (RXF 393): 93.5 µM (inactive)
- GI50 (DMS-114): 33 µM (inactive)
- GI50 (NCI-H226): > 100 µM (inactive)
- GI50 (KM-20L2): > 100 µM (inactive)
- GI50 (SF-295): 79.8 µM (inactive)
- GI50 (SK-MEL-2): 46.6 µM (inactive)
- GI50 (SK-MEL-5): 81.5 µM (inactive)
- GI50 (KM12): 49.8 µM (inactive)
- GI50 (HCT-116): 38.2 µM (inactive)
- GI50 (NCI-H460): > 100 µM (inactive)
- GI50 (OVCAR-4): > 100 µM (inactive)
- GI50 (UACC-62): 48.3 µM (inactive)
- GI50 (RPMI-8226): 49.2 µM (inactive)
- GI50 (SN12C): 39.9 µM (inactive)
- GI50 (LOX IMVI): 40.7 µM (inactive)
- GI50 (HOP-62): > 100 µM (inactive)
- GI50 (OVCAR-3): > 100 µM (inactive)
- GI50 (HL-60): 18.8 µM (inactive)
- GI50 (SW-620): 46.2 µM (inactive)
- GI50 (HCC 2998): > 100 µM (inactive)
- GI50 (LXFL 529): 84.9 µM (inactive)
- GI50 (SNB-78): 65.8 µM (inactive)
- GI50 (SNB-19): 77.8 µM (inactive)
- GI50 (HT-29): 92 µM (inactive)
- GI50 (NCI-H23): 87.7 µM (inactive)
- GI50 (OVCAR-8): 59.3 µM (inactive)
- GI50 (MOLT-4): 23.3 µM (inactive)
- GI50 (CCRF-CEM): 17.1 µM (inactive)
- GI50 (SK-MEL-28): 93.3 µM (inactive)
- GI50 (M14): 71 µM (inactive)
- GI50 (UO-31): 29.9 µM (inactive)
- GI50 (HOP-92): 30.3 µM (inactive)
- GI50 (U-251): 32.2 µM (inactive)
- GI50 (HOP-18): > 100 µM (inactive)
- GI50 (RXF 631): 65.3 µM (inactive)
- GI50 (COLO 205): > 100 µM (inactive)
- GI50 (SNB-75): 99.1 µM (inactive)
- GI50 (ACHN): 54.3 µM (inactive)
- GI50 (DLD-1): 32.7 µM (inactive)
- GI50 (UACC-257): > 100 µM (inactive)
- GI50 (XF498): > 100 µM (inactive)
- GI50 (SF-268): 40.9 µM (inactive)
- GI50 (TK-10): > 100 µM (inactive)
- GI50 (M19-MEL): 50 µM (inactive)
- GI50 (IGROV-1): 78.2 µM (inactive)

Compound: O=C1C2[C@@H](C(=O)N1c1ccc(Br)cc1)C13C(=CC2([N+](=O)[O-])[C@@H]2C(=O)N(c4ccc(Br)cc4)C(=O)[C@@H]21)c1ccccc1N3c1ccccc1 (some centres undefined)
- GI50 (EKVX): > 100 µM (inactive)
- GI50 (Malme-3M): > 100 µM (inactive)
- GI50 (K562): > 100 µM (inactive)
- GI50 (OVCAR-5): > 100 µM (inactive)
- GI50 (786-0): 13.7 µM (inactive)
- GI50 (A549): > 100 µM (inactive)
- GI50 (RXF 393): > 100 µM (inactive)
- GI50 (DMS-114): > 100 µM (inactive)
- GI50 (NCI-H226): > 100 µM (inactive)
- GI50 (SF-295): > 100 µM (inactive)
- GI50 (SK-MEL-2): > 100 µM (inactive)
- GI50 (KM12): > 100 µM (inactive)
- GI50 (NCI-H522): > 100 µM (inactive)
- GI50 (RPMI-8226): > 100 µM (inactive)
- GI50 (SN12C): > 100 µM (inactive)
- GI50 (LOX IMVI): > 100 µM (inactive)
- GI50 (OVCAR-3): > 100 µM (inactive)
- GI50 (HL-60): > 100 µM (inactive)
- GI50 (SW-620): > 100 µM (inactive)
- GI50 (HCC 2998): > 100 µM (inactive)
- GI50 (SNB-78): > 100 µM (inactive)
- GI50 (SNB-19): > 100 µM (inactive)
- GI50 (SR): 83 µM (inactive)
- GI50 (NCI-H23): > 100 µM (inactive)
- GI50 (OVCAR-8): > 100 µM (inactive)
- GI50 (MOLT-4): > 100 µM (inactive)
- GI50 (CCRF-CEM): 46.7 µM (inactive)
- GI50 (SK-MEL-28): > 100 µM (inactive)
- GI50 (M14): > 100 µM (inactive)
- GI50 (UO-31): 18.9 µM (inactive)
- GI50 (HOP-92): > 100 µM (inactive)
- GI50 (U-251): > 100 µM (inactive)
- GI50 (HOP-18): > 100 µM (inactive)
- GI50 (RXF 631): > 100 µM (inactive)
- GI50 (COLO 205): 25.8 µM (inactive)
- GI50 (SNB-75): > 100 µM (inactive)
- GI50 (SF-539): > 100 µM (inactive)
- GI50 (ACHN): > 100 µM (inactive)
- GI50 (DLD-1): > 100 µM (inactive)
- GI50 (UACC-257): > 100 µM (inactive)
- GI50 (XF498): 39.3 µM (inactive)
- GI50 (SF-268): 11.6 µM (inactive)
- GI50 (TK-10): > 100 µM (inactive)
- GI50 (M19-MEL): > 100 µM (inactive)
- GI50 (HCT-15): > 100 µM

Reference: ChEMBL document CHEMBL1201862, “PubChem BioAssay data set” (2004)
